# Where a chain is given by its changes, count along the chain named.
# Target: T1, androgen receptor in MDA-MB453-MMTV clone 54-19 cells (Homo sapiens, UniProt P10275)
# T1 sequence (P10275 1-920 Q868H): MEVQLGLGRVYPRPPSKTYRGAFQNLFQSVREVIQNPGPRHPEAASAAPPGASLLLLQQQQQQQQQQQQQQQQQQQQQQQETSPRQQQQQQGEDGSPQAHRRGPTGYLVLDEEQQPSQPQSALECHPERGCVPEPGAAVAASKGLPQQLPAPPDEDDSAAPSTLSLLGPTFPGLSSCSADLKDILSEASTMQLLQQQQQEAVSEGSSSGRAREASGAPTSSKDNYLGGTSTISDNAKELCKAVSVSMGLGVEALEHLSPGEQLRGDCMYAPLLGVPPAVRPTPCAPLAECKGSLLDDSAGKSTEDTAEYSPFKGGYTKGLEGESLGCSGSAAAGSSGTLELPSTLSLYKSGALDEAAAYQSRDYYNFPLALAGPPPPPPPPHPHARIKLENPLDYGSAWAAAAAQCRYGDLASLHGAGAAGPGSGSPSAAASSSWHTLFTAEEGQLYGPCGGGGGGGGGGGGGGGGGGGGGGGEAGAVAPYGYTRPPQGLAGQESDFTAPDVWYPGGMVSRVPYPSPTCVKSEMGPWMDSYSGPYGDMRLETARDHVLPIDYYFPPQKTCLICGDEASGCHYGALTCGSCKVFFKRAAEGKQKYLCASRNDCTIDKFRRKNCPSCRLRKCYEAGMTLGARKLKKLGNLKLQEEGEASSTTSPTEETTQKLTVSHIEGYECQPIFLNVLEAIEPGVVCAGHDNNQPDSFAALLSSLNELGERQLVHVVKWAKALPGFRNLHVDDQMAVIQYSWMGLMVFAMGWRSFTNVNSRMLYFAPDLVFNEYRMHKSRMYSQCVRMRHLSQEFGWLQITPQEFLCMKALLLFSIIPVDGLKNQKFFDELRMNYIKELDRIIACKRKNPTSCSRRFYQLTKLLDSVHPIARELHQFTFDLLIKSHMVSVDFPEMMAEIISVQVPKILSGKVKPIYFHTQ
# Assay: AR antagonist cell assay (MMTV-luciferase reporter)
# Format: cell-based
# Settings: MDA-MB453-MMTV clone 54-19, inhibition of DHT induced luciferase, 17 hr; mean of multiple tests; read-out: AR Cell IC50
# Protocol: The compounds ability to antagonize the effects of androgen on the androgen receptor were determined in a whole cell assay as described immediately below.
# This cell line is a stable transfected cell line with MDA-MB453 cell background (a human breast tumor cell line expressing androgen receptor). A MMTV minimal promoter containing ARE was first cloned in front of a firefly luciferase reporter gene. Then the cascade was cloned into transfection vector pUV120puro. […] Puromycin resistant stable cell line was selected.
# Plating medium: DMEM (phenol red free), 10% charcoal treated HyClone serum, 1% L-glutamine
# Assay medium: DMEM (phenol red free), 1% charcoal treated HyClone serum, 1% L-glutamine, and 1% penicillin/streptomycin
# Assay procedure: • 1. Cells are maintained in culture medium, splitting cells when they reach 80-90% confluence • 2. To test compounds, 10,000 cells/well are plated to opaque 96 cell culture plate in 100 ul/well plating medium, culture for overnight at 37° C. in cell culture incubator • 3. […] Add 10 ul/well freshly prepared DHT (final concentration at […]) to each well, incubate at 37° C. for 17 hr (overnight) • 5.
# The results are reported as the mean of multiple tests as described below (the numbers of tests are indicated in the footnote). N.D. denotes that the compound was not tested.
row,SMILES,IC50 [nM]
1,"Cc1ccc(C(C)C)cc1Oc1ccc(C#N)c(Cl)c1 [Example 53, 2-Chloro-4-(5-isopropyl-2-methyl-phenoxy)-benzonitrile]",621
2,"CCN(CC)C(=O)c1ccccc1Oc1ccc(C#N)c(C(F)(F)F)c1 [Example 106, 2-(4-Cyano-3-trifluoromethyl-phenoxy)-N,N-diethyl-benzamide]",> 1000

# Same assay, conditions: read-out: AR Cell IC50; MDA-MB453-MMTV clone 54-19, inhibition of DHT induced luciferase, 17 hr; mean of multiple tests
row,SMILES,IC50 [nM]
1,"COc1cc(F)ccc1Oc1ccc(C#N)c(Cl)c1 [Example 56, 2-Chloro-4-(4-fluoro-2-methoxy-phenoxy)-benzonitrile]",11
2,"CC(=O)c1c(O)cccc1Oc1ccc(C#N)c(C(F)(F)F)c1 [Example 85, 4-(2-Acetyl-3-hydroxy-phenoxy)-2-trifluoromethyl-benzonitrile]",4

# Target: T2, hAR (human androgen receptor) (Homo sapiens, UniProt P10275)
# T2 construct: made in house; host or cells: baculovirus/Sf9 insect cells (crude extract)
# T2 sequence (P10275 1-920): T1 sequence (P10275 1-920 Q868H) with H868Q
# Assay: Competitive hAR binding assay with 3H-DHT tracer
# Settings: not given
# Protocol: The description below describes how the assay was carried out.
# Competitive binding analysis was performed on baculovirus/Sf9 generated hAR extracts in the presence or absence of different concentrations of test agent and a fixed concentration of ^3H-dihydrotestosterone (3H-DHT) as tracer. […] Subsequently, the binding reactions are washed three times to completely remove excess unbound ^3H-DHT. hAR bound ^3H-DHT levels are determined in the presence of compounds (i.e. competitive binding) and compared to levels bound when no competitor is present (i.e. maximum binding). Compound binding affinity to the hAR is expressed as the concentration of compound at which one half of the maximum binding is inhibited.
row,SMILES,IC50 [nM]
1,"COc1cc(F)ccc1Oc1ccc(C#N)c(Cl)c1 [Example 56, 2-Chloro-4-(4-fluoro-2-methoxy-phenoxy)-benzonitrile]",6
2,"Cc1ccc(F)c(Oc2ccc(C#N)cc2Cl)c1F [Example 6, 3-Chloro-(2,6-difluro-5-methyl-phenoxy)benzonitrile]",59
3,"CCOc1ccccc1Oc1ccc(C#N)c(Cl)c1 [Example 70, 2-Chloro-4-(2-ethoxy-phenoxy)-benzonitrile]",19
4,"CC(N)c1cc(F)ccc1Oc1ccc(C#N)c(C(F)(F)F)c1 (centres unmarked) [Example 122, 4-[2-(1-aminoethyl)-4-fluoro-phenoxy]-2-trifluoromethyl-benzonitrile]",2

# Same assay, conditions: baculovirus/Sf9 hAR extract, 1 nM 3H-DHT, one hour at 4° C; mean of multiple tests; read-out: AR Binding IC50
row,SMILES,IC50 [nM]
1,"CC(=O)c1c(O)cccc1Oc1ccc(C#N)c(C(F)(F)F)c1 [Example 85, 4-(2-Acetyl-3-hydroxy-phenoxy)-2-trifluoromethyl-benzonitrile]",111
2,"Cc1ccc(C(C)C)cc1Oc1ccc(C#N)c(Cl)c1 [Example 53, 2-Chloro-4-(5-isopropyl-2-methyl-phenoxy)-benzonitrile]",192
3,"CCN(CC)C(=O)c1ccccc1Oc1ccc(C#N)c(C(F)(F)F)c1 [Example 106, 2-(4-Cyano-3-trifluoromethyl-phenoxy)-N,N-diethyl-benzamide]",175
4,"CCN(CC)Cc1c(C)ccc(C)c1Oc1ccc(C#N)c(C(F)(F)F)c1 [Example 89, 4-(2-Diethylaminomethyl-3,6-dimethyl-phenoxy)-2-trifluoromethyl-benzonitrile]",255
5,"COc1ccc(C)cc1Oc1ccc(C#N)cc1Cl [Example 22, 3-Chloro-4-(2-methoxy-5-methyl-phenoxy)-benzonitrile]",491
6,"N#Cc1ccc(Oc2ccc3c(c2)CCC3)cc1Cl [Example 43, 2-Chloro-4-(indan-5-yloxy)-benzonitrile]",439
7,"CCSc1ccccc1Oc1ccc(C#N)cc1Cl [Example 1, 3-Chloro-4-(2-ethylsulfanyl-phenoxy)-benzonitrile]",281
8,"Cc1ccc(Oc2ccc(C#N)c(Cl)c2)c(Cc2ccccc2)c1 [Example 62, 4-(2-Benzyl-4-methyl-phenoxy)-2-chloro-benzonitrile]",326
9,"CCOc1ccccc1Oc1ccc(C#N)cc1Cl [Example 71, 3-Chloro-4-(2-ethoxy-phenoxy)-benzonitrile]",299
10,"N#Cc1ccc(Oc2ccccc2OCc2ccccc2)cc1C(F)(F)F [Example 92, 4-(2-Benzyloxy-phenoxy)-2-trifluoromethyl-benzonitrile]",361
11,"N#Cc1ccc(Oc2ccccc2[N+](=O)[O-])cc1C(F)(F)F [Example 77, 4-(2-Nitro-phenoxy)-2-trifluoromethyl-benzonitrile]",458
12,"CCN(CC)C(=O)c1ccccc1Oc1ccc(C#N)cc1Cl [Example 18, 2-(2-Chloro-4-cyano-phenoxy)-N,N-diethyl-benzamide]",402
13,"CC(C)(CO)CNC(=O)c1ccccc1Oc1ccc(C#N)c(C(F)(F)F)c1 [Example 114, 2-(4-Cyano-3-trifluoromethyl-phenoxy)-N-(3-hydroxy-2,2-dimethyl-propyl)-benzamide]",402
14,"C[C@H](O)CNC(=O)c1ccccc1Oc1ccc(C#N)c(C(F)(F)F)c1 [Example 113, 2-(4-Cyano-3-trifluoromethyl-phenoxy)-N-(2-hydroxy-propyl)-benzamide]",353
15,"CCOC(=O)c1ccc(Oc2ccc(C#N)c(Cl)c2)c(OC)c1 [Example 55, 4-(3-Chloro-4-cyano-phenoxy)-3-methoxy-benzoic acid ethyl ester]",300
16,"Cc1ccc(Oc2ccc(C#N)c(Cl)c2)c(C(C)(C)C)c1 [Example 73, 4-(2-tert-Butyl-4-methyl-phenoxy)-2-chloro-benzonitrile]",253
17,"Cc1ccc(C(C)C)c(Oc2ccc(C#N)cc2Cl)c1 [Example 14, 3-Chloro-4-(2-isopropyl-5-methyl-phenoxy)-benzonitrile]",375
18,"Cc1ccc(Oc2ccc(C#N)cc2Cl)c(C)c1 [Example 21, 3-Chloro-4-(2,4-dimethyl-phenoxy)-benzonitrile]",263
19,"COc1cc(C(C)=O)ccc1Oc1ccc(C#N)c(C(F)(F)F)c1 [Example 74, 4-(4-Acetyl-2-methoxy-phenoxy)-2-trifluoromethyl-benzonitrile]",1480
20,"Cc1ccc(-c2ccc(Oc3ccc(C#N)c(Cl)c3)c(C)c2)cc1 [Example 58, 2-Chloro-4-(3,4′-dimethyl-biphenyl-4-yloxy)-benzonitrile]",436
21,"Cc1ccc(C)c(Oc2ccc(C#N)cc2Cl)c1 [Example 9, 3-Chloro-4-(2,5-dimethyl-phenoxy)-benzonitrile]",356
22,"C=CCc1cccc(C)c1Oc1ccc(C#N)cc1Cl [Example 11, 4-(2-Allyl-6-methyl-phenoxy)-3-chloro-benzonitrile]",242
23,"Cc1cccc(Oc2ccc(C#N)cc2Cl)c1 [Example 28, 3-Chloro-4-m-tolyloxy-benzonitrile]",412
24,"N#Cc1ccc(Oc2ccccc2[N+](=O)[O-])c(Cl)c1 [Example 2, 3-Chloro-4-(2-nitro-phenoxy)-benzonitrile]",472
25,"CC(=O)c1ccc(Oc2ccc(C#N)c(C(F)(F)F)c2)cc1 [Example 75, 4-(4-Acetyl-phenoxy)-2-trifluoromethyl-benzonitrile]",443
26,"N#Cc1ccc(Oc2cccc3ccccc23)c(Cl)c1 [Example 72, 3-Chloro-4-(naphthalen-1-yloxy)-benzonitrile]",478
27,"N#Cc1ccccc1Oc1ccc(C#N)c(C(F)(F)F)c1 [Example 112, 4-(2-Cyano-phenoxy)-2-trifluoromethyl-benzonitrile]",315
